Laboratory results published in PubChem BioAssay (NCI).
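Cells were grown in 96-well plates and exposed to each compound for 48 hours at five concentrations; endpoints were interpolated linearly between bracketing concentrations, or set to the highest concentration if not reached. GI50 is the concentration that inhibits growth by half. TGI is the concentration that stops growth completely.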

How the values were obtained:
Assay in all cases: inhibition of tumour cell growth, NCI panel, 48 h
NCI-H23 lung = tested on: NCI-H23 lung
NCI-H226 lung = tested on: NCI-H226 lung
HCC-2998 colon = tested on: HCC-2998 colon
T-47D breast = tested on: T-47D breast
DU-145 prostate = tested on: DU-145 prostate
SW-620 colon = tested on: SW-620 colon
ACHN renal = tested on: ACHN renal
SNB-75 CNS = tested on: SNB-75 CNS

Row | Structure (SMILES) | GI50 (NCI-H23 lung) [µM] | TGI (NCI-H23 lung) [µM] | GI50 (NCI-H226 lung) [µM] | TGI (NCI-H226 lung) [µM] | GI50 (HCC-2998 colon) [µM] | TGI (HCC-2998 colon) [µM] | GI50 (T-47D breast) [µM] | TGI (T-47D breast) [µM] | GI50 (DU-145 prostate) [µM] | TGI (DU-145 prostate) [µM] | GI50 (SW-620 colon) [µM] | TGI (SW-620 colon) [µM] | GI50 (ACHN renal) [µM] | TGI (ACHN renal) [µM] | GI50 (SNB-75 CNS) [µM] | TGI (SNB-75 CNS) [µM]
1 | O=C(Nc1cc(Cl)ccc1O)c1ccc(Nc2ccnc(C(F)(F)F)c2)cc1 | 2.46 | 7.81 | 2.02 | 7.33 | 3.73 | > 100 | 1.76 | 6.39 | 3.25 | > 100 | 3.73 | > 100 | 2.35 | 7.42 | – | –
2 | O=C(Nc1cc(Nc2ncccc2-c2ncnc3nc[nH]c23)ccc1F)c1cc(C(F)(F)F)cc(C(F)(F)F)c1 | 1.45 | > 10 | 2.74 | > 10 | 1.24 | 2.74 | 4.24 | > 10 | 4.16 | > 10 | 1.54 | > 10 | 1.42 | 4.27 | 1.9 | 7.15
3 | COc1ccc(-c2nccn2-c2ccc(OC)cc2)cc1 | 22.2 | 58.9 | 18.6 | > 70.8 | 16.4 | 33.7 | 65.4 | > 100 | 33.3 | > 93.8 | 25 | > 100 | 5.64 | > 57.4 | 5.06 | 30.3
4 | CC(C)c1[nH]nc2c1N=C(c1ccccc1Cl)c1cc([N+](=O)[O-])ccc1N2 | 7.24 | > 25 | 5.09 | 16.1 | 6.91 | > 19.1 | 8.75 | > 23 | 7.87 | > 23.6 | 2.2 | > 25 | 5.45 | 20.4 | 1.31 | > 17.6
5 | Cn1cc(-c2csc(-c3cn(CCCCN4CCCCC4)c4ccccc34)n2)c2cccnc21 | 1.66 | 3.21 | – | – | 1.85 | 3.41 | 14.3 | 40.3 | 1.75 | 3.2 | 1.72 | 3.25 | 1.67 | 3.03 | 1.51 | 2.99
6 | Cc1cc(N/N=C/c2ccccn2)nc2ccccc12 | 0.831 | 22.2 | 0.286 | 4.93 | 0.462 | 16.1 | 0.376 | 15.9 | 0.46 | 14.3 | 0.588 | 19.6 | 0.347 | 11.1 | 0.461 | 15.2
7 | COc1ccc(-c2cnnn2-c2nonc2-n2cccc2)cc1 | 0.246 | 5.82 | 0.705 | 33.3 | 0.235 | 2.89 | – | – | 0.342 | 2.62 | 0.149 | > 100 | 1.05 | > 94 | 0.222 | –
8 | ClCCN(CCCl)c1ccc(CNc2ccccc2)cc1 | 9.59 | > 100 | 10.3 | 28.2 | – | – | 5.91 | > 100 | 5.28 | > 100 | 10.6 | > 100 | 2.76 | > 100 | 3.7 | 57.4
9 | O=C(c1ccco1)c1c(C(F)(F)F)n([O-])c2ccc(C(F)(F)F)cc2[n+]1=O | 0.853 | 2.3 | 0.657 | 1.55 | 1.04 | 2.5 | 0.344 | 1.75 | 0.5 | 0.925 | 0.159 | 0.338 | 0.168 | 0.362 | 0.576 | 1.55
10 | CCCC/C(=C\C1=C(C)C(=O)C(OC)=C(OC)C1=O)C(=O)O | > 100 | > 100 | – | – | > 100 | > 100 | 33.2 | 94.3 | > 100 | > 100 | > 100 | > 100 | > 100 | > 100 | 25.2 | > 100
11 | NNCCc1ccc(NC(=O)CCCc2ccc(C(=O)Nc3ccccc3N)cc2)cc1 | 21 | > 100 | 16 | > 100 | 18 | > 100 | 4.34 | > 100 | 14.5 | > 100 | 5.77 | > 100 | 17.7 | > 100 | 32.8 | > 100
12 | N#CCCN1C/C(=C/c2ccc(Br)cc2)C(=O)/C(=C/c2ccc(Br)cc2)C1 | 2.64 | 7.58 | – | – | 1.85 | 3.31 | 4.36 | 28.2 | – | – | – | – | 1.76 | 3.37 | 4.35 | 31.4
13 | CCCc1cc(=O)n2c(C(=O)Nc3ccc(Cl)cc3C)c(C(=O)Nc3ccc(F)cc3)sc2n1 | 26.4 | > 150 | – | – | 96.6 | > 150 | 20 | 132 | 9.37 | 33.3 | 6.45 | 61.4 | 3.8 | 13.4 | 3.71 | 11.5
14 | O=C(O)c1cccc(COc2ccc([N+](=O)[O-])cc2Cl)c1 | – | – | – | – | > 100 | > 100 | > 100 | > 100 | > 100 | > 100 | > 100 | > 100 | > 100 | > 100 | > 100 | > 100
15 | O=C(/C(=C\c1c(-c2ccccc2)[nH]c2ccccc12)S(=O)(=O)c1ccccc1)c1ccccc1 | 9.57 | > 100 | > 100 | > 100 | > 100 | > 100 | 3.44 | > 100 | > 100 | > 100 | – | – | 6.67 | > 100 | 10.1 | > 100
16 | CN(C)CCNCCN | – | > 100 | – | > 100 | – | – | – | > 100 | – | > 100 | – | > 100 | – | > 100 | – | –
17 | c1coc(-c2c3ccc(=[N+]4CCCCC4)cc-3oc3cc(N4CCCCC4)ccc23)c1 | – | – | 0.138 | 1.87 | 0.0751 | 0.331 | – | – | 0.088 | 0.475 | – | – | 0.0327 | 0.12 | 0.0903 | 0.588
